For 33 molecules, Ki results are on record in patent publication US8084466B2, “Bicyclic heteroaryl-substituted imidazoles as modulators of the histamine H4 receptor” (Janssen Pharmaceutica NV, priority 2007, dated 2011).

Each structure is given as a SMILES string.

This assay concerns the target T1, human histamine H4 receptor (Homo sapiens, UniProt Q9H3N8).
T1 construct: expressed in transfected cells; host or cells: SK-N-MC cells or COS7 cells, transient transfection with pH4R; cell membranes
Nature of the assay: Binding Assay on Recombinant Human Histamine H4 Receptor. The note with it: competition binding with 3H-histamine (5 nM; KD 5 nM), membranes of SK-N-MC or COS7 cells expressing human H4 receptor; average of results; > = highest value tested. The protocol: Biological Methods: Binding Assay on Recombinant Human Histamine H4 Receptor
SK-N-MC cells or COS7 cells were transiently transfected with pH4R and grown in 150 cm^2 tissue culture dishes. Cells were washed with saline solution, scraped with a cell scraper and collected by centrifugation (1000 rpm, 5 min). Cell membranes were prepared by homogenization of the cell pellet in 20 mM Tris-HCl with a polytron tissue homogenizer for 10 sec at high speed. Homogenate was centrifuged at 1000 rpm for 5 min at 4° C. The supernatant was then collected and centrifuged at 20,000×g for 25 min at 4° C. The final pellet was resuspended in 50 mM Tris-HCl. Cell membranes were incubated with ^3H-histamine (5-70 nM) in the presence or absence of excess histamine (10,000 nM). Incubation occurred at room temperature for […]. Membranes were harvested by rapid filtration over Whatman GF/C filters and washed 4 times with ice-cold 50 mM Tris HCl. Filters were then dried, mixed with scintillant and counted for radioactivity. SK-N-MC or COS7 cells expressing human histamine H4 receptor were used to measure the affinity of binding of other compounds and their ability to displace ^3H-ligand binding by incubating the above-described reaction in the presence of various concentrations of inhibitor or compound to be tested. For competition binding studies using ^3H-histamine, Ki values were calculated, based on an experimentally determined KD value of 5 nM and a ligand concentration of 5 nM, according to Y.-C.

T1 sequence (Q9H3N8 whole entry): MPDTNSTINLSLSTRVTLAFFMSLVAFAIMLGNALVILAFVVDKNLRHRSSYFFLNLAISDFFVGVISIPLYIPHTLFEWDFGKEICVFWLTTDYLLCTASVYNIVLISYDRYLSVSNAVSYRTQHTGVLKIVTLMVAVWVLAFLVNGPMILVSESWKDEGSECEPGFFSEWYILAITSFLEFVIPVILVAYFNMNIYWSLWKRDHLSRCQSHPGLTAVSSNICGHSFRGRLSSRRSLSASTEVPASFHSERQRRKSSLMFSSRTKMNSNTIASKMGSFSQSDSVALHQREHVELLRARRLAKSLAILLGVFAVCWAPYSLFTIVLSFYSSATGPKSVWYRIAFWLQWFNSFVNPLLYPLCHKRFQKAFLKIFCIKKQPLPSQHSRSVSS

`CN1CCC(CCCCn2ccc3c(-c4nc5cc(F)c(F)cc5[nH]4)cccc32)CC1` [Example 67, 5,6-Difluoro-2-{1-[4-(1-methyl-piperidin-4-yl)-butyl]-1H-indol-4-yl}-1H-1 5 benzoimidazole]: the Ki (commonly a measure of affinity in units of concentration, obtained from inhibition or displacement) came to 184 nM.

Consider `CN1CCC(CCCCn2ccc3c(-c4nc5cc(Cl)ccc5[nH]4)cccc32)CC1` [Example 68, 5-Chloro-2-{1-[4-(1-methyl-piperidin-4-yl)-butyl]-1H-indol-4-yl}-1H-benzoimidazole], for which the Ki was 343 nM. For `CN1CCC(CCCCn2ccc3c(-c4nc5cc(F)ccc5[nH]4)cccc32)CC1` [Example 69, 5-Fluoro-2-{1-[4-(1-methyl-piperidin-4-yl)-butyl]-1H-indol-4-yl}-1H-benzoimidazole] the value was 325 nM; for `CN1CCC(CCCCn2ccc3c(-c4nc5c(F)cc(F)cc5[nH]4)cccc32)CC1` [Example 70, 4,6-Difluoro-2-{1-[4-(1-methyl-piperidin-4-yl)-butyl]-1H-indol-4-yl}-1H-benzoimidazole], 102 nM. The result for `CN1CCC(CCCCn2ccc3c(-c4nc5ccc6ccccc6c5[nH]4)cccc32)CC1` [Example 71, 2-{1-[4-(1-Methyl-piperidin-4-yl)-butyl]-1H-indol-4-yl}-1H-naphtho[1,2-d]imidazole] reads 802 nM; that for `CN1CCC(CCCCn2cc(Cl)c3c(-c4nc5cccc(C(=O)c6ccccc6)c5[nH]4)cccc32)CC1` [Example 72, (2-{3-Chloro-1-[4-(1-methyl-piperidin-4-yl)-butyl]-1H-indol-4-yl}-3H-benzoimidazol-4-yl)-phenyl-methanone], 545 nM. For `Cc1ccc2[nH]c(-c3cccc4c3c(Cl)cn4CCCCC3CCNCC3)nc2c1C` [Example 73, 2-[3-Chloro-1-(4-piperidin-4-yl-butyl)-1H-indol-4-yl]-4,5-dimethyl-1H-benzoimidazole] the value was 1710 nM.

With `Cc1ccc2[nH]c(-c3cccc4c3c(Cl)cn4CCCCC3CCN(C)CC3)nc2c1C` [Example 74, 2-{3-Chloro-1-[4-(1-methyl-piperidin-4-yl)-butyl]-1H-indol-4-yl}-4,5-dimethyl-1H-benzoimidazole], the Ki amounted to 1670 nM. The result for `CN1CCC(CCCCn2cc(Cl)c3c(-c4nc5c(F)c(F)ccc5[nH]4)cccc32)CC1` [Example 75, 2-{3-Chloro-1-[4-(1-methyl-piperidin-4-yl)-butyl]-1H-indol-4-yl}-4,5-difluoro-1H-benzoimidazole] reads 1000 nM; that for `c1cc(-c2nc3cc4c(cc3[nH]2)OCO4)c2ccn(CCCCC3CCNCC3)c2c1` [Example 76, 6-[1-(4-Piperidin-4-yl-butyl)-1H-indol-4-yl]-5H-[1,3]dioxolo[4′,5′:4,5]-benzo[1,2-d]imidazole], 1940 nM. As for `O=C(c1ccccc1)c1ccc2[nH]c(-c3cccc4c3ccn4CCCCC3CCNCC3)nc2c1` [Example 77, Phenyl-{2-[1-(4-piperidin-4-yl-butyl)-1H-indol-4-yl]-1H-benzoimidazol-5-yl}-methanone], the Ki is 1670 nM. The result for `Cc1ccc2[nH]c(-c3cccc4c3ccn4CCCCC3CCN(C)CC3)nc2c1C` [Example 78, 4,5-Dimethyl-2-{1-[4-(1-methyl-piperidin-4-yl)-butyl]-1H-indol-4-yl}-1H-benzoimidazole] reads 154 nM; that for `Cc1[nH]c(-c2ccc3c(ccn3CCCN3CCN(C)CC3)c2)nc1-c1cccc(C(F)(F)F)c1` [Example 79, 1-[3-(4-Methyl-piperazin-1-yl)-propyl]-5-[5-methyl-4-(3-trifluoromethyl-phenyl)-1H-imidazol-2-yl]-1H-indole], 228 nM.

Consider `Cc1[nH]c(-c2ccc3c(ccn3CCCN3CCN(C)CC3)c2)nc1-c1ccc(Cl)cc1` [Example 80, 5-[4-(4-Chloro-phenyl)-5-methyl-1H-imidazol-2-yl]-1-[3-(4-methyl-piperazin-1-yl)-propyl]-1H-indole], for which the Ki was determined as 1980 nM. On to `CCCc1[nH]c(-c2ccc3c(ncn3CCCC3CCN(C)CC3)c2C)nc1C` [Example 81, 4-Methyl-1-[3-(1-methyl-piperidin-4-yl)-propyl]-5-(4-methyl-5-propyl-1H-imidazol-2-yl)-1H-benzoimidazole], for which the Ki came to 953 nM. For `Cc1nc(-c2ccc3c(ncn3CCCC3CCN(C)CC3)c2C)[nH]c1-c1ccc(C(F)(F)F)cc1` [Example 82, 4-Methyl-1-[3-(1-methyl-piperidin-4-yl)-propyl]-5-[4-methyl-5-(4-trifluoromethyl-phenyl)-1H-imidazol-2-yl]-1H-benzoimidazole] the value was 0.3 nM; for `Cc1nc(-c2ccc3c(ncn3CCCC3CCN(C)CC3)c2C)[nH]c1-c1cc(Cl)cc(Cl)c1` [Example 83, 5-[5-(3,5-Dichloro-phenyl)-4-methyl-1H-imidazol-2-yl]-4-methyl-1-[3-(1-methyl-piperidin-4-yl)-propyl]-1H-benzoimidazole], 0.3 nM. On to `Cc1c(-c2nc(C(F)(F)F)c(-c3ccccc3)[nH]2)ccc2c1ncn2CCCC1CCN(C)CC1` [Example 84, 4-Methyl-1-[3-(1-methyl-piperidin-4-yl)-propyl]-5-(5-phenyl-4-trifluoromethyl-1H-imidazol-2-yl)-1H-benzoimidazole], for which the Ki is 8 nM. The result for `Cc1ccc(-c2nc(-c3ccc4c(ncn4CCCC4CCN(C)CC4)c3C)[nH]c2-c2ccc(Cl)cc2)cc1` [Example 85] reads 5 nM; that for `Cc1c(F)ccc2[nH]c(-c3ccc4c(c3)c(CN(C)C)cn4CCCC3CCN(C)CC3)nc12` [Example 86, {5-(5-Fluoro-4-methyl-1H-benzoimidazol-2-yl)-1-[3-(1-methyl-piperidin-4-yl)-propyl]-1H-indol-3-ylmethyl}-dimethyl-amine], more than 10000 nM; that for `Cc1c(F)ccc2[nH]c(-c3ccc4c(c3)c(Cl)cn4CCCC3CCNCC3)nc12` [Example 87, 2-[3-Chloro-1-(3-piperidin-4-yl-propyl)-1H-indol-5-yl]-5-fluoro-4-methyl-1H-benzoimidazole], 1830 nM. For `Cc1c(F)ccc2[nH]c(-c3ccc4c(c3)c(Cl)cn4CCCC3CCN(C)CC3)nc12` [Example 88, 2-{3-Chloro-1-[3-(1-methyl-piperidin-4-yl)-propyl]-1H-indol-5-yl}-5-fluoro-4-methyl-1H-benzoimidazole], the inhibition constant Ki is more than 10000 nM. For `Cc1cc(C)c2nc(-c3ccc4c(c3)c(C)c(C)n4CCCC3CCNCC3)[nH]c2c1` [Example 89, 2-[2,3-Dimethyl-1-(3-piperidin-4-yl-propyl)-1H-indol-5-yl]-4,6-dimethyl-1H-benzoimidazole] the value was 2000 nM; for `Cc1c(C)n(CCCC2CCNCC2)c2ccc(-c3nc4c(C)c(F)ccc4[nH]3)cc12` [Example 90, 2-[2,3-Dimethyl-1-(3-piperidin-4-yl-propyl)-1H-indol-5-yl]-5-fluoro-4-methyl-1H-benzoimidazole], 2000 nM; for `Cc1c(F)ccc2[nH]c(-c3cnc4c(ccn4CCCC4CCNCC4)c3)nc12` [Example 91, 5-Fluoro-4-methyl-2-[1-(3-piperidin-4-yl-propyl)-1H-pyrrolo[2,3-b]pyridin-5-yl]-1H-benzoimidazole], 762 nM. For `CN1CCC(CCCn2ccc3cc(-c4nc5cc(C(C)(C)C)ccc5[nH]4)cnc32)CC1` [Example 92], the Ki came to 353 nM.

Consider `Cc1c(F)ccc2[nH]c(-c3ccc4c(c3)CCN4CCCC3CCNCC3)nc12` [Example 93, 5-Fluoro-4-methyl-2-[1-(3-piperidin-4-yl-propyl)-2,3-dihydro-1H-indol-5-yl]-1H-benzoimidazole], for which the inhibitory constant (Ki) amounted to 1100 nM. In the case of `Clc1ccc2[nH]c(-c3ccc4c(c3)CCN4CCCC3CCNCC3)nc2c1` [Example 94, 5-Chloro-2-[1-(3-piperidin-4-yl-propyl)-2,3-dihydro-1H-indol-5-yl]-1H-benzoimidazole], the inhibition constant (Ki) is 600 nM.

For `Cc1cccc2[nH]c(-c3ccc4c(c3)CCN4CCCC3CCNCC3)nc12` [Example 95, 4-Methyl-2-[1-(3-piperidin-4-yl-propyl)-2,3-dihydro-1H-indol-5-yl]-1H-benzoimidazole], the inhibition constant (Ki) is 390 nM. For `Cc1c(F)ccc2[nH]c(-c3ccc4c(c3)CCN4CCCC3CCN(C)CC3)nc12` [Example 96, 5-Fluoro-4-methyl-2-{1-[3-(1-methyl-piperidin-4-yl)-propyl]-2,3-dihydro-1H-indol-5-yl}-1H-benzoimidazole], the Ki is 103 nM. Regarding `CN1CCC(CCCN2CCc3cc(-c4nc5cc(Cl)ccc5[nH]4)ccc32)CC1` [Example 97, 5-Chloro-2-{1-[3-(1-methyl-piperidin-4-yl)-propyl]-2,3-dihydro-1H-indol-5-yl}-1H-benzoimidazole], the Ki stood at 43 nM. `Cc1cccc2[nH]c(-c3ccc4c(c3)CCN4CCCC3CCN(C)CC3)nc12` [Example 98, 4-Methyl-2-{1-[3-(1-methyl-piperidin-4-yl)-propyl]-2,3-dihydro-1H-indol-5-yl}-1H-benzoimidazole]: the Ki came to 157 nM. For `Fc1cc(F)c2nc(-c3cc4ccn(CCCC5CCNCC5)c4cc3Cl)[nH]c2c1` [Example 99, 2-[6-Chloro-1-(3-piperidin-4-yl-propyl)-1H-indol-5-yl]-4,6-difluoro-1H-benzoimidazole] the value was 2670 nM.
